{"source": "patent US10472320B2", "about": "“Process to prepare phenolic ethylenediamine diacetic acid compounds” (Akzo Nobel Chemicals International B.V., priority 2015, dated 2019)", "settings": "for appearance of extracted aqueous ligand solution (precipitate formation): after last methyl isobutyl ketone extraction; for concentration of o,o-HBED at which a clear solution was obtained after addition of water: dilution with water after precipitation; for concentration of o,o-HBED at which a clear solution was obtained after addition of water / concentration of o,o-HBED in the extracted aqueous ligand solution: expressed as H4-o,o-HBED; for concentration of o,o-HBED in the extracted aqueous ligand solution: after phenol extraction with methyl isobutyl ketone", "procedure": "(§1) Phenol was extracted from the reaction mixture with methyl isobutyl ketone (250 ml and 3 times 125 ml).\nas §1\n(§2) Phenol was extracted from the reaction mixture with methyl isobutyl ketone (75 ml and 3 times 50 ml).\n(§3) Phenol was extracted from the reaction mixture with methyl isobutyl ketone (100 ml and 3 times 50 ml).\nas §3, §2\nPhenol was extracted from the reaction mixture with methyl isobutyl ketone (85 ml and 3 times 50 ml).\nas §2", "data": [{"smiles": "O=C(O)CN(CCN(CC(=O)O)Cc1ccccc1O)Cc1ccccc1O", "note": "[Comparative Example 1, N,N′-di(2-hydroxybenzyl)ethylenediamine-N,N′-diacetic acid, reference compound]", "values": [{"measurement": "appearance of extracted aqueous ligand solution (precipitate formation)", "value": "soon a large amount of precipitate was formed"}, {"measurement": "concentration of o,o-HBED at which a clear solution was obtained after addition of water", "value": "approximately 6.2%"}]}, {"smiles": "O=C(O)CN(CCN(CC(=O)O)Cc1ccccc1O)Cc1ccccc1O", "note": "[Comparative Example 2, N,N′-di(2-hydroxybenzyl)ethylenediamine-N,N′-diacetic acid, reference compound]", "values": [{"measurement": "appearance of extracted aqueous ligand solution (precipitate formation)", "value": "turned turbid and a lot of product precipitated"}, {"measurement": "concentration of o,o-HBED at which a clear solution was obtained after addition of water", "value": 9.6, "unit": "%"}]}, {"smiles": "O=C(O)CN(CCN(CC(=O)O)Cc1ccccc1O)Cc1ccccc1O", "note": "[Comparative Example 3, N,N′-di(2-hydroxybenzyl)ethylenediamine-N,N′-diacetic acid, reference compound]", "values": [{"measurement": "appearance of extracted aqueous ligand solution (precipitate formation)", "value": "turned turbid and a lot of product precipitated"}]}, {"smiles": "O=C(O)CN(CCN(CC(=O)O)Cc1ccccc1O)Cc1ccccc1O", "note": "[Example 1, N,N′-di(2-hydroxybenzyl)ethylenediamine-N,N′-diacetic acid]", "values": [{"measurement": "concentration of o,o-HBED in the extracted aqueous ligand solution", "value": "approximately 26%"}]}, {"smiles": "O=C(O)CN(CCN(CC(=O)O)Cc1ccccc1O)Cc1ccccc1O", "note": "[Example 2, N,N′-di(2-hydroxybenzyl)ethylenediamine-N,N′-diacetic acid]", "values": [{"measurement": "appearance of extracted aqueous ligand solution (precipitate formation)", "value": "became slightly turbid, but the solution could still be handled easily"}, {"measurement": "concentration of o,o-HBED in the extracted aqueous ligand solution", "value": "approximately 23%"}]}, {"smiles": "O=C(O)CN(CCN(CC(=O)O)Cc1ccccc1O)Cc1ccccc1O", "note": "[Example 3, N,N′-di(2-hydroxybenzyl)ethylenediamine-N,N′-diacetic acid]", "values": [{"measurement": "appearance of extracted aqueous ligand solution (precipitate formation)", "value": "became slightly turbid, but the solution could still be handled easily"}, {"measurement": "concentration of o,o-HBED in the extracted aqueous ligand solution", "value": "approximately 22%"}]}, {"smiles": "O=C(O)CN(CCN(CC(=O)O)Cc1ccccc1O)Cc1ccccc1O", "note": "[Example 4, N,N′-di(2-hydroxybenzyl)ethylenediamine-N,N′-diacetic acid]", "values": [{"measurement": "appearance of extracted aqueous ligand solution (precipitate formation)", "value": "remained clear without the formation of any precipitates"}, {"measurement": "concentration of o,o-HBED in the extracted aqueous ligand solution", "value": "approximately 22%"}]}, {"smiles": "O=C(O)CN(CCN(CC(=O)O)Cc1ccccc1O)Cc1ccccc1O", "note": "[Example 5, N,N′-di(2-hydroxybenzyl)ethylenediamine-N,N′-diacetic acid]", "values": [{"measurement": "appearance of extracted aqueous ligand solution (precipitate formation)", "value": "remained clear without the formation of any precipitates"}, {"measurement": "concentration of o,o-HBED in the extracted aqueous ligand solution", "value": "approximately 22%"}]}, {"smiles": "O=C(O)CN(CCN(CC(=O)O)Cc1ccccc1O)Cc1ccccc1O", "note": "[Example 6, N,N′-di(2-hydroxybenzyl)ethylenediamine-N,N′-diacetic acid]", "values": [{"measurement": "concentration of o,o-HBED in the extracted aqueous ligand solution", "value": "approximately 22%"}]}, {"smiles": "O=C(O)CN(CCN(CC(=O)O)Cc1ccccc1O)Cc1ccccc1O", "note": "[Example 7, N,N′-di(2-hydroxybenzyl)ethylenediamine-N,N′-diacetic acid]", "values": [{"measurement": "appearance of extracted aqueous ligand solution (precipitate formation)", "value": "remained clear without the formation of any precipitates"}, {"measurement": "concentration of o,o-HBED in the extracted aqueous ligand solution", "value": "approximately 25%"}]}]}
